Measurements taken from PMC4718913, “Characterization of a novel oxidase from Thelonectria discophora SANK 18292 involved in nectrisine biosynthesis” (AMB Express, 2016).

Legend:
NecC [1] = target: T1, NecC (Thelonectria discophora, UniProt A0A0S3Q283); assay: LC-MS of nectrisine formed (NaBH4 reduction, NBD-F label); format: biochemical; parameters: full-length cDNA in pET21b, C-terminal His tag, E. coli BL21 (DE3), Ni column; about 62 kDa; conditions: 15 °C, 12.5 h
T1 sequence (A0A0S3Q283 1-558): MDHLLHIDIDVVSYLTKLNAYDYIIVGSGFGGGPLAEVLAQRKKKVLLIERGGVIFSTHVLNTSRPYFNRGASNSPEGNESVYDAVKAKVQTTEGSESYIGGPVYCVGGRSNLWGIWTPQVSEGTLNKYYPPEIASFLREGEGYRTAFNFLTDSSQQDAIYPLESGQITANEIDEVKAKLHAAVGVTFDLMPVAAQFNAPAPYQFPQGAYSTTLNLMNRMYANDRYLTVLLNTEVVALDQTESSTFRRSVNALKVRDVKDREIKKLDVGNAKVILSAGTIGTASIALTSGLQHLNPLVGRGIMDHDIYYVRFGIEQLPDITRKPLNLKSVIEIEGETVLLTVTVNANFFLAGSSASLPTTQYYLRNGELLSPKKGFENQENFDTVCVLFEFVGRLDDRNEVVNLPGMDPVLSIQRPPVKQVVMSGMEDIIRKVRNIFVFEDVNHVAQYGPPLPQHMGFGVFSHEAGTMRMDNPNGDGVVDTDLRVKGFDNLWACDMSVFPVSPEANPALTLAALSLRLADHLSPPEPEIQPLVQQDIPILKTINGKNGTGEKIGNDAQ

NecC [2] = target: T1, NecC; assay: H2O2 production, ABTS/peroxidase coupled, absorbance at […] nm; format: biochemical; parameters: native, purified from mycelium (ammonium sulfate, DEAE); FAD-like flavin; homo-oligomers about 8 mer to 16 mer; conditions: pH 7.0, 30 °C

N[C@H](CO)[C@@H](O)[C@H](O)CO [compound 2, 4-amino-4-deoxyarabinitol]
LC-MS of nectrisine formed (NaBH4 reduction, NBD-F label) (NecC [1]): the recombinant NecC had 4-amino-4-deoxyarabinitol oxidase activity | H2O2 production, ABTS/peroxidase coupled, absorbance at 420 nm (NecC [2]; 1 mM substrate, O2 as acceptor): 4-amino-4-deoxyarabinitol was the preferred substrate

OC[C@@H](O)[C@H](O)[C@@H](O)CO [xylitol]
H2O2 production, ABTS/peroxidase coupled, absorbance at 420 nm (NecC [2]; xylitol in place of 4-amino-4-deoxyarabinitol): NecC also exhibited activity against some sugar alcohols
